The results in this text go back to patent US4735955A, “2-substituted cycloheptoimidazole derivatives and anti-ulcerative agents containing the same” (Kotobuki Seiyaku Co., Ltd., priority 1985, dated 1988).

The test system of test [1] is gastric-acid secretion. Nature of the test: Gastric acid antisecretory activity, pylorus-ligated rat (method of Shay). The class given is in vivo. Conditions: intraduodenal, 50 mg/kg intraduodenally just after pylorus ligation, 4 hours after ligation, read-out: Total Acid Inhibition. Here is the method:
Gastric acid antisecretory activities
Inhibitory activities of gastric-acid secretion are determined by the method of Shay (Gastroenterology 26, 906). Rats are fasted for 24 hours and pylorus ligation is carried out under light anesthesia.
Drug is given intraduodenally just after the ligation. Four hours after ligation, the stomach of the rat is removed and the acidity of gastric juice is determined.

For test [2], the target named is T1, (H^+,K^+)ATPase (Sus scrofa, UniProt P19156).
T1 construct: (H^+,K^+)ATPase is prepared from the pig gastric mucosa; from tissue; host or cells: pig gastric mucosa
Nature of the test: Inhibition of (H^+,K^+)ATPase activity (method of Fellenius). It is filed as biochemical. Conditions: 3 × 10^-4 M, pig gastric mucosa, pH 7.4, 37° C. Here is the method:
Inhibition of (H^+,K^+)ATPase activities. Inhibition of (H^+,K^+) ATPase activities is determined by the method of F. Fellenius et al., Nature 290, pp. 159~161, 1981. (H^+,K^+)ATPase is prepared from the pig gastric mucosa and the test compound is incubated with […], 40 mM of tris-buffer (pH 7.4), 2 mM of MgCl2 and 10 mM of KCl at 37° C. Inorganic phosphate occurring by stimulation of ATPase is determined.

Test [3] is described as follows: Cytoprotective activity, inhibition of ethanol-induced ulcer (method of Robert). The class given is in vivo. Conditions: rat, 100 mg/kg perorally 30 minutes before 1 ml absolute ethanol, stomach removed one hour after ethanol. Here is the method: Cytoprotective Activities
Inhibitory activities of ethanol-induced ulcer are determined by the method of Robert (Gastroenterology 77, 433~443). Rats are fasted for 24 hours and are given 1 ml of absolute ethanol perorally. One hour after administration of ethanol, the stomach of the rat is removed. The length of each ulcer occurring in the grandulor stomach is determined and each ulcer in one rat is accounted as the ulcer-index. The test compounds are given perorally 30 minutes before absolute ethanol administration.

T1 sequence (P19156 2-1034 limits assumed): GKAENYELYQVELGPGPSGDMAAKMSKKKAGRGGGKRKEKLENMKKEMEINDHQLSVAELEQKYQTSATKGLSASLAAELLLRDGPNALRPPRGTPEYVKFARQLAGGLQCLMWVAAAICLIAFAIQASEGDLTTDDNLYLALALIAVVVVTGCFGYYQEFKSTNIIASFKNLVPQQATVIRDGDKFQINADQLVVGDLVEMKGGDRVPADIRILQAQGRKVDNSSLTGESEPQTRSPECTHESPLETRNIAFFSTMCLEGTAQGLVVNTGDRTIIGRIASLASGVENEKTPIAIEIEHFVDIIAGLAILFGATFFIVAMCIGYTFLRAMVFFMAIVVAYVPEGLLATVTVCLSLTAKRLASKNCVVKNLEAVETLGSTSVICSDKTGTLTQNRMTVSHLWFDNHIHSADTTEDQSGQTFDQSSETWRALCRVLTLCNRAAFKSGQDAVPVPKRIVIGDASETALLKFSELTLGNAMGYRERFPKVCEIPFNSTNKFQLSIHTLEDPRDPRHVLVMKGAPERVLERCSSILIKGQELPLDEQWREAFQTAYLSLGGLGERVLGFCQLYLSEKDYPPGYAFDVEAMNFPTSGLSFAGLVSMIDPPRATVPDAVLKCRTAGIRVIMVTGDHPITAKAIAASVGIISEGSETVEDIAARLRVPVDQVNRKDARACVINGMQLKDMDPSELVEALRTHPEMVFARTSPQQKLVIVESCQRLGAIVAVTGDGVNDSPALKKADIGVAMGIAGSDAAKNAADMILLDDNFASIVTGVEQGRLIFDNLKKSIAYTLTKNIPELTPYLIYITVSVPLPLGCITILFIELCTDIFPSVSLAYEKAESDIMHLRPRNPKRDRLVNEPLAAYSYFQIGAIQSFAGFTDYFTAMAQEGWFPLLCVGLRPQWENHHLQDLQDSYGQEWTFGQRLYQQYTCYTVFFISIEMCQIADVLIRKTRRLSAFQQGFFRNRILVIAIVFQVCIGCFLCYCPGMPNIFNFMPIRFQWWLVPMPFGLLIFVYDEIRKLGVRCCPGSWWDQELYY
T1 sequence (P18434 whole entry partner): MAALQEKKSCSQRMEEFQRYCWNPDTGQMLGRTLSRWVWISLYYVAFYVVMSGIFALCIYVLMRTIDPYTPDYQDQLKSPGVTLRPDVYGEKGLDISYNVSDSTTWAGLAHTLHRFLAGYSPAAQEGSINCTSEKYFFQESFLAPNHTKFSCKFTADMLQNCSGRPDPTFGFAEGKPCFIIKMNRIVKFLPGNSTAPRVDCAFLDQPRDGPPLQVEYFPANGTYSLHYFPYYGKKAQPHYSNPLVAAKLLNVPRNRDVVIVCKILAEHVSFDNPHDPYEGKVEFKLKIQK

On to `CC(C)c1ccc2nc(SCc3ccccn3)nc-2cc1` [Compound 1, 2-(2-Pyridyl)methylthio-6-isopropyl-cycloheptoimidazole], for which, in test [1], the inhibition in vivo at 50 mg/kg turned out to be 80.5%.
For the compound `Cc1nc(-c2ccccc2)c(CSc2nc3cccccc-3n2)o1` [Compound 37, 2-(2-Methyl-4-Phenyloxazole-5-yl)methylthio-cycloheptoimidazole], in test [2], the inhibition (as a rule, how much of the control response was suppressed) at 300 µM is 48%.
Regarding `Nc1nc(CSc2nc3cccccc-3n2)cs1` [Compound 14, 2-(2-Aminothiazole-4-yl)methylthio-cycloheptoimidazole], in test [3], the “Inhibition of ethanol-induced ulcer” value came out at 90.3%.
As for `c1ccc(CSc2nc3cccccc-3n2)cc1` [Compound 31, 2-(Phenyl)methylthio-cycloheptoimidazole], the inhibition in vivo at 50 mg/kg in test [1] is 78.9%.
On the same count and under the same terms, with `c1ccc2nc(SCCn3cnc4ccccc43)nc-2cc1` [Compound 3, 2-(1-Benzimidazolyl)ethylthio-cycloheptoimidazole] the figure was 22.4%.
Same read-out and setting: the value for `Clc1ccc(CSc2nc3cccccc-3n2)cc1` [Compound 28, 2-(p-Chlorophenyl)methylthio-cycloheptoimidazole] was 39.1%.
`Cc1noc(C)c1C[S+]([O-])c1nc2cccccc-2n1` (centres unmarked) [Compound 53, 2(3,5-Dimethylisoxazole-4-yl)methylthio-cycloheptoimidazole-S-oxide]: the inhibition in vivo at 50 mg/kg in test [1] came out at 95.7%. Besides, the inhibition at 300 µM in test [2] turned out to be 45%.
As to `c1ccc2nc(SCc3ccncc3)nc-2cc1` [Compound 12, 2-(4-Pyridyl)methylthio-cycloheptoimidazole], the inhibition in vivo at 50 mg/kg in test [1] is 66.8%.
Turning to `CSc1nnc(CSc2nc3cccccc-3n2)s1` [Compound 8, 2-(2-Methylthio-1,3,4-thiadiazole-5-yl)methylthio-cycloheptoimidazole], the inhibition in vivo at 50 mg/kg in test [1] was 20.6%.
On to `c1ccc2nc(SCc3ccn[nH]3)nc-2cc1` [Compound 10, 2-(5-Pyrazolyl)methylthio-cycloheptoimidazole], for which the inhibition in vivo at 50 mg/kg in test [1] amounted to 54.4%.
Take `c1ccc2nc(SCc3cccnc3)nc-2cc1` [Compound 9, 2-(3-Pyridyl)methylthio-cycloheptoimidazole]: the “Inhibition of ethanol-induced ulcer” value in test [3] came out at 83.1%.
With `Nc1cccc(CSc2nc3cccccc-3n2)c1` [Compound 30, 2-(m-Aminophenyl)methylthio-cycloheptoimidazole], in test [1], the inhibition in vivo at 50 mg/kg worked out at 52.5%.
With `COc1ccc(C[S+]([O-])c2nc3cccccc-3n2)cc1` (centres unmarked) [Compound 47, 2-(p-Methoxyphenyl)methylthio-cycloheptoimidazole-S-oxide], the inhibition in vivo at 50 mg/kg in test [1] was determined as 90.7%. Further, in test [2], at 300 µM the inhibition was 32%.
Take `CC(C)c1ccc2nc(SCc3csc(N)n3)nc-2cc1` [Compound 15, 2-(2-Aminothiazole-4-yl)methylthio-6-isopropyl-cycloheptoimidazole]: the inhibition in vivo at 50 mg/kg in test [1] was determined as 21%. In test [3], the “Inhibition of ethanol-induced ulcer” value is on record as 90.0%.
With `[O-][S+](Cc1c[nH]cn1)c1nc2cccccc-2n1` (centres unmarked) [Compound 51, 2-(4-imidazolyl)methylthio-cycloheptoimidazole-S-oxide], the inhibition in vivo at 50 mg/kg in test [1] is 63.6%.
As to `CN(C)c1ccc(C[S+]([O-])c2nc3cccccc-3n2)cc1` (centres unmarked) [Compound 49, 2-(p-Dimethylaminophenyl)methylthio-cycloheptoimidazole-S-oxide], the inhibition in vivo at 50 mg/kg in test [1] was 33.6%.
As to `COc1ccc(C[S+]([O-])c2nc3cccccc-3n2)c(OC)c1OC` (centres unmarked) [Compound 44, 2-(2,3,4-Trimethoxyphenyl)methylthio-cycloheptoimidazole-S-oxide], the inhibition in vivo at 50 mg/kg in test [1] stood at 89.8%. At 300 µM the inhibition in test [2] was 25%.
For `Nc1ccccc1CSc1nc2cccccc-2n1` [Compound 57, 2-(o-aminophenyl)methylthio-cycloheptoimidazol] the same measures were 92.9% and 46%.
`Cc1oncc1CSc1nc2cccccc-2n1` [Compound 34, 2-(5-Methylisoxazole-4-yl)methylthio-cycloheptoimidazole]: the inhibition in vivo at 50 mg/kg in test [1] came out at 70.1%.
Same read-out and setting: with `Cc1cc(C[S+]([O-])c2nc3cccccc-3n2)on1` (centres unmarked) [Compound 52, 2-(3-Methylisoxazole-5-yl)methylthio-cycloheptoimidazole-S-oxide] the figure was 96.9%.
Consider `c1ccc2nc(SCc3c[nH]cn3)nc-2cc1` [Compound 13, 2-(4-imidazolyl)methylthio-cycloheptoimidazole], for which, in test [1], the inhibition in vivo at 50 mg/kg was determined as 66.5%. The “Inhibition of ethanol-induced ulcer” value in test [3] was 88.1%.
With `COc1ccc(CSc2nc3cccccc-3n2)cc1` [Compound 26, 2-(p-Methoxyphenyl)methylthio-cycloheptoimidazole], the inhibition in vivo at 50 mg/kg in test [1] is 81.6%.
Turning to `Cc1ccc(C[S+]([O-])c2nc3cccccc-3n2)cc1` (centres unmarked) [Compound 45, 2-(p-Tolyl)methylthio-cycloheptoimidazole-S-oxide], the inhibition in vivo at 50 mg/kg in test [1] turned out to be 90.7%.
